The text below walks through data of PubChem BioAssay AID330 (DTP/NCI, 2004).

The assay concerns P388 leukemia ip, CD2F1 mice, survival T/C. As to the kind of experiment: NCI In Vivo Anticancer Drug Screen. Data for tumor model P388 Leukemia (intraperitoneal) in CD2F1 (CDF1) mice. Particulars: endpoint: median survival time, higher = longer survival. The essentials:
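Mice carrying the transplanted tumor received test compound or vehicle. Survival was recorded in each group, and the value is the treated-group measurement divided by that of the vehicle-treated control group.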

Where [1] appears, read: dose: 25.0 mg/kg/injection, schedule: Q01DX005 (ip), vehicle: saline.
The mark [2] stands for this setting: dose: 50.0 mg/kg/injection, schedule: Q01DX005 (ip), vehicle: saline.
Where [3] appears, read: dose: 50.0 mg/kg/injection, schedule: Q01DX005 (ip), vehicle: saline with Tween-80.
[4] abbreviates: dose: 100.0 mg/kg/injection, schedule: Q01DX005 (ip), vehicle: saline with Tween-80.
Setting [5] is: dose: 200.0 mg/kg/injection, schedule: Q01DX005 (ip), vehicle: saline with Tween-80.
Setting [6] is: dose: 100.0 mg/kg/injection, schedule: Q01DX001 (ip), vehicle: saline with Tween-80.
The mark [7] stands for this setting: dose: 200.0 mg/kg/injection, schedule: Q01DX001 (ip), vehicle: saline with Tween-80.
[8] abbreviates: dose: 400.0 mg/kg/injection, schedule: Q01DX001 (ip), vehicle: saline with Tween-80.
The mark [9] stands for this setting: dose: 60.0 mg/kg/injection, schedule: Q01DX005 (ip), vehicle: saline with Tween-80.
Where [10] appears, read: dose: 120.0 mg/kg/injection, schedule: Q01DX005 (ip), vehicle: saline with Tween-80.
The mark [11] stands for this setting: dose: 240.0 mg/kg/injection, schedule: Q01DX005 (ip), vehicle: saline with Tween-80.
The mark [12] stands for this setting: dose: 12.5 mg/kg/injection, schedule: Q01DX009 (ip), vehicle: saline with Tween-80.

Structures are written as SMILES. Several values for one entry are separate records, joined by “and”; a condition that tells them apart may be missing. Identical values can stand only once. Toxic doses and inconclusive results are not listed.

Regarding `C[N+]1(C[Si](C)(C)c2ccccc2)CCOCC1`, the T/C (dose: 12.5 mg/kg/injection, schedule: Q01DX005 (ip), vehicle: saline) is 105 % of control; the T/C under setting [1] is 103 % of control; the T/C under setting [2] is 102 % of control and 104 % of control.

For `O=C1C=CC(=O)C1=Cc1ccccc1`, the T/C was 95 % of control (dose: 2.5 mg/kg/injection, schedule: Q04DX002 (ip), vehicle: saline with Tween-80) and 97 % of control (dose: 5.0 mg/kg/injection, schedule: Q04DX002 (ip), vehicle: saline with Tween-80).

Regarding `CC(C)C1=CC2=C(C(=O)C1=O)C13CCCC(C)(C)C1CC2OC3=O` (configuration not stated), the T/C was 105 % of control (dose: 7.0 mg/kg/injection, schedule: Q01DX005 (ip), vehicle: saline with Tween-80); 104 % of control (dose: 14.0 mg/kg/injection, schedule: Q01DX005 (ip), vehicle: saline with Tween-80); 109 % of control (dose: 28.0 mg/kg/injection, schedule: Q01DX005 (ip), vehicle: saline with Tween-80).

On to `O=c1c2cc3c(=O)n(CC#CCN4CCCCC4)c(=O)c3cc2c(=O)n1CC#CCN1CCCCC1`, for which the T/C was 100 % of control under setting [3], 100 % of control under setting [4] and 98 % of control under setting [5].

For `N/C(=N\N=C\c1cccnc1)SCCCCBr`, the T/C is 100 % of control (dose: 0.78 mg/kg/injection, schedule: Q01DX001 (ip), vehicle: saline); 110 % of control (dose: 0.78 mg/kg/injection, schedule: Q01DX009 (ip), vehicle: saline); 101 % of control and 110 % of control (dose: 1.56 mg/kg/injection, schedule: Q01DX001 (ip), vehicle: saline); 110 % of control (dose: 3.12 mg/kg/injection, schedule: Q01DX001 (ip), vehicle: saline).

Turning to `CCC1C(=O)OCCOCCOCCOCCOC1=O`, the T/C is 106 % of control (dose: 100.0 mg/kg/injection, schedule: Q04DX003 (ip), vehicle: Klucel (hydroxypropylcellulose) (HPC)); 100 % of control (dose: 200.0 mg/kg/injection, schedule: Q04DX003 (ip), vehicle: Klucel (hydroxypropylcellulose) (HPC)); 107 % of control (dose: 400.0 mg/kg/injection, schedule: Q04DX003 (ip), vehicle: Klucel (hydroxypropylcellulose) (HPC)).

Turning to `CCOC(=O)c1c(NCCO)c(-c2ccccc2)c(=O)n2c1[nH]c1ccccc12`, the T/C by setting is: under setting [6], 100 % of control; under setting [7], 99 % of control; under setting [8], 87 % of control.

For `O=c1[nH]cnc2c1CCc1ccccc1-2`, the T/C reads like this: (dose: 100.0 mg/kg/injection, schedule: Q04DX002 (ip), vehicle: saline with Tween-80) 93 % of control; (dose: 200.0 mg/kg/injection, schedule: Q04DX002 (ip), vehicle: saline with Tween-80) 100 % of control; (dose: 400.0 mg/kg/injection, schedule: Q04DX002 (ip), vehicle: saline with Tween-80) 102 % of control.

In the case of `Oc1cc2c(cc1C(c1ccc3c(c1)OCO3)N1CCCCC1)OCO2` (configuration not stated), the T/C is 119 % of control under setting [9], 118 % of control under setting [10] and 120 % of control under setting [11].

Regarding `CCCCOP(=O)(N1CC1(C)C)N1CC1(C)C` (configuration not stated), the T/C reads like this: (dose: 2.0 mg/kg/injection, schedule: Q01DX009 (ip), vehicle: saline) 104 % of control and 115 % of control and 96 % of control; (dose: 4.0 mg/kg/injection, schedule: Q01DX009 (ip), vehicle: saline) 115 % of control and 117 % of control and 98 % of control; (dose: 8.0 mg/kg/injection, schedule: Q01DX009 (ip), vehicle: saline) 108 % of control and 111 % of control; (dose: 10.0 mg/kg/injection, schedule: Q01DX001 (ip), vehicle: saline) 105 % of control and 111 % of control and 115 % of control; (dose: 20.0 mg/kg/injection, schedule: Q01DX001 (ip), vehicle: saline) 101 % of control and 102 % of control; (dose: 40.0 mg/kg/injection, schedule: Q01DX001 (ip), vehicle: saline) 105 % of control and 117 % of control.

As to `CCCCN(CCCC)/N=N\N(CCCC)CCCC`, the T/C is 104 % of control and 93 % of control (dose: 12.5 mg/kg/injection, schedule: Q01DX005 (ip), vehicle: saline with Tween-80); 104 % of control and 90 % of control (dose: 25.0 mg/kg/injection, schedule: Q01DX005 (ip), vehicle: saline with Tween-80); 107 % of control and 93 % of control and 94 % of control under setting [3]; 98 % of control and 100 % of control and 97 % of control under setting [4]; 105 % of control under setting [5].

Turning to `CS(=O)(=O)c1nnc(-c2cccc[n+]2[O-])s1`, the T/C reads like this: (dose: 50.0 mg/kg/injection, schedule: Q01DX005 (ip), vehicle: Klucel (hydroxypropylcellulose) (HPC)) 116 % of control; (dose: 100.0 mg/kg/injection, schedule: Q01DX005 (ip), vehicle: Klucel (hydroxypropylcellulose) (HPC)) 114 % of control.

Consider `COC(=O)/C=C1/Nc2ccc(Cl)cc2C(=O)NC1=O`, for which the T/C was 95 % of control under setting [9], 93 % of control under setting [10] and 93 % of control under setting [11].

Regarding `CCOC(=O)c1ccc(NC(C)=NC(C)(C)C)cc1`, the T/C runs as follows: (dose: 50.0 mg/kg/injection, schedule: Q01DX009 (ip), vehicle: Klucel (hydroxypropylcellulose) (HPC)) 93 % of control; (dose: 100.0 mg/kg/injection, schedule: Q01DX009 (ip), vehicle: Klucel (hydroxypropylcellulose) (HPC)) 91 % of control; (dose: 200.0 mg/kg/injection, schedule: Q01DX009 (ip), vehicle: Klucel (hydroxypropylcellulose) (HPC)) 102 % of control.

In the case of `CCN(CC)Cc1cc(C)c(O)c(N=Nc2ccc3ccc4cccc5ccc2c3c45)c1C`, the T/C under setting [12] was 94 % of control; the T/C (dose: 25.0 mg/kg/injection, schedule: Q01DX009 (ip), vehicle: saline with Tween-80) was 87 % of control; the T/C (dose: 50.0 mg/kg/injection, schedule: Q01DX009 (ip), vehicle: saline with Tween-80) was 99 % of control and 122 % of control and 90 % of control; the T/C (dose: 100.0 mg/kg/injection, schedule: Q01DX009 (ip), vehicle: saline with Tween-80) was 105 % of control and 118 % of control and 94 % of control; the T/C (dose: 200.0 mg/kg/injection, schedule: Q01DX009 (ip), vehicle: saline with Tween-80) was 100 % of control and 105 % of control; the T/C (dose: 400.0 mg/kg/injection, schedule: Q01DX009 (ip), vehicle: saline with Tween-80) was 107 % of control.

Turning to `O=C(C=C(C(F)(F)F)C(F)(F)F)c1ccccc1Cl`, the T/C is 110 % of control (dose: 6.25 mg/kg/injection, schedule: Q01DX009 (ip), vehicle: saline with Tween-80); 150 % of control under setting [12]; 113 % of control (dose: 12.5 mg/kg/injection, schedule: Q04DX003 (ip), vehicle: saline with Tween-80); 118 % of control (dose: 25.0 mg/kg/injection, schedule: Q04DX003 (ip), vehicle: saline with Tween-80).

As for `CN(C)c1cnc(N)nc1N`, the T/C under setting [1] is 95 % of control and 97 % of control; the T/C under setting [2] is 97 % of control; the T/C (dose: 100.0 mg/kg/injection, schedule: Q01DX005 (ip), vehicle: saline) was 95 % of control.

For the molecule `CCSC(C(OC(C)=O)C(OC(C)=O)C(COC(C)=O)OC(C)=O)n1cnc2c(=S)nc[nH]c21` (configuration not stated), the T/C runs as follows: under setting [6], 101 % of control; under setting [7], 93 % of control; under setting [8], 87 % of control.
